# Measured values: ChEMBL document CHEMBL5532665 (J Med Chem, 2024)
# Activity calls are given as the source filed them. The rule behind the calls is not given here.
# Columns and labels:
# Mus musculus [1] = assay: Antinociceptive activity in Kunming mouse model assessed as latency of tail withdrawal at 134 nmol/kg, sc measured for 60 mins by tail-flick test relative to control; assay type: functional; conditions: 1 h
# Mu-type opioid receptor [2] = molecular target: T1, Mu-type opioid receptor (Homo sapiens, UniProt P35372); assay: Agonist activity at human MOR expressed in CHO-K1 cells co-expressing G-alpha15 by calcium mobilization assay relative to control; assay type: functional, cell-based; conditions: filed as agonist
# T1 sequence (P35372 whole entry): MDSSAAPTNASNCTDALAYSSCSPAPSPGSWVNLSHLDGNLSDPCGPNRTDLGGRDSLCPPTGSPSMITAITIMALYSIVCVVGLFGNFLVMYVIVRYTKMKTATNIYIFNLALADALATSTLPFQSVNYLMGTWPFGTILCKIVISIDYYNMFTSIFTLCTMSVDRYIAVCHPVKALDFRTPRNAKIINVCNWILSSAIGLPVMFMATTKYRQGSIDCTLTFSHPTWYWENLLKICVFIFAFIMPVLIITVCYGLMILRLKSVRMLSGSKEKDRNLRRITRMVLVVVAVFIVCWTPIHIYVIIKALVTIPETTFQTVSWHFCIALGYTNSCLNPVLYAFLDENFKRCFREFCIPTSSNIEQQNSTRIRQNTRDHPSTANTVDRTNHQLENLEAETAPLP
# [3] = molecular target: Kappa-type opioid receptor (Homo sapiens, UniProt P41145); assay: Agonist activity at human KOR expressed in CHO-K1 cells co-expressing G-alpha15 upto 100 uM by calcium mobilization assay; assay type: functional, cell-based
# Chain of Kappa-type opioid receptor (P41145 whole entry): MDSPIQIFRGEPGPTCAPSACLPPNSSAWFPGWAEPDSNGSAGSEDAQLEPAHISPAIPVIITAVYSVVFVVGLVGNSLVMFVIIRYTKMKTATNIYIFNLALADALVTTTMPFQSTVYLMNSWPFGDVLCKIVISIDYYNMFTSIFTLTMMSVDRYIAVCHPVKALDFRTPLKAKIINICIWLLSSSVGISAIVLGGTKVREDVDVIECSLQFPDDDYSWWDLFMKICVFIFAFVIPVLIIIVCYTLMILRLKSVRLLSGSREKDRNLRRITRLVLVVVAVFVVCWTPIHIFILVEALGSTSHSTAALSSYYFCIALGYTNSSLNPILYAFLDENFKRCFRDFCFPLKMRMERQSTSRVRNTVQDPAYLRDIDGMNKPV
# Mu-type opioid receptor [4] = molecular target: T1, Mu-type opioid receptor; assay: Agonist activity at human MOR expressed in CHO-K1 cells co-expressing G-alpha15 by calcium mobilization assay; assay type: functional, cell-based
# Mus musculus [5] = assay: Antinociceptive activity in Kunming mouse model assessed as latency of tail withdrawal at 134 nmol/kg, sc measured for 30 mins by tail-flick test relative to control; assay type: functional; conditions: 0.5 h
# Mus musculus [6] = assay: Antinociceptive activity in Kunming mouse model assessed as latency of tail withdrawal at 134 nmol/kg, sc measured for 120 mins by tail-flick test relative to control; assay type: functional; conditions: 2 h
# Mus musculus [7] = assay: Antinociceptive activity in Kunming mouse model assessed as latency of tail withdrawal at 134 nmol/kg, sc measured for 10 mins by tail-flick test relative to control; assay type: functional
# Mus musculus [8] = assay: Antinociceptive activity in Kunming mouse model assessed as latency of tail withdrawal at 13881 nmol/kg, sc measured for 120 mins by tail-flick test relative to control; assay type: functional; conditions: 2 h
# Mus musculus [9] = assay: Antinociceptive activity in Kunming mouse model assessed as latency of tail withdrawal at 13881 nmol/kg, sc measured for 60 mins by tail-flick test relative to control; assay type: functional; conditions: 1 h
# Mus musculus [10] = assay: Antinociceptive activity in Kunming mouse model assessed as latency of tail withdrawal at 13881 nmol/kg, sc measured for 10 mins by tail-flick test relative to control; assay type: functional
# Mus musculus [11] = assay: Antinociceptive activity in Kunming mouse model assessed as latency of tail withdrawal at 13881 nmol/kg, sc measured for 30 mins by tail-flick test relative to control; assay type: functional; conditions: 0.5 h
# Mus musculus [12] = assay: Antinociceptive activity in Kunming mouse model assessed as latency of tail withdrawal at 144.4 nmol/kg, sc measured for 60 mins by tail-flick test relative to control; assay type: functional; conditions: 1 h
# Mus musculus [13] = assay: Antinociceptive activity in Kunming mouse model assessed as latency of tail withdrawal at 144.4 nmol/kg, sc measured for 120 mins by tail-flick test relative to control; assay type: functional; conditions: 2 h
# Mus musculus [14] = assay: Antinociceptive activity in Kunming mouse model assessed as latency of tail withdrawal at 144.4 nmol/kg, sc measured for 10 mins by tail-flick test relative to control; assay type: functional
# Mus musculus [15] = assay: Antinociceptive activity in Kunming mouse model assessed as latency of tail withdrawal at 144.4 nmol/kg, sc measured for 30 mins by tail-flick test relative to control; assay type: functional; conditions: 0.5 h
# Mus musculus [16] = assay: Antinociceptive activity in Kunming mouse model assessed as latency of tail withdrawal at 164.1 nmol/kg, sc measured for 60 mins by tail-flick test relative to control; assay type: functional; conditions: 1 h
# Mus musculus [17] = assay: Antinociceptive activity in Kunming mouse model assessed as latency of tail withdrawal at 164.1 nmol/kg, sc measured for 10 mins by tail-flick test relative to control; assay type: functional
# Mus musculus [18] = assay: Antinociceptive activity in Kunming mouse model assessed as latency of tail withdrawal at 164.1 nmol/kg, sc measured for 30 mins by tail-flick test relative to control; assay type: functional; conditions: 0.5 h
# Mus musculus [19] = assay: Antinociceptive activity in Kunming mouse model assessed as latency of tail withdrawal at 164.1 nmol/kg, sc measured for 120 mins by tail-flick test relative to control; assay type: functional; conditions: 2 h
# Mus musculus [20] = assay: Antinociceptive activity in Kunming mouse model assessed as latency of tail withdrawal at 13882 nmol/kg, sc measured for 10 mins by tail-flick test relative to control; assay type: functional
# Mus musculus [21] = assay: Antinociceptive activity in Kunming mouse model assessed as latency of tail withdrawal at 13882 nmol/kg, sc measured for 30 mins by tail-flick test relative to control; assay type: functional; conditions: 0.5 h
# Mus musculus [22] = assay: Antinociceptive activity in Kunming mouse model assessed as latency of tail withdrawal at 13882 nmol/kg, sc measured for 60 mins by tail-flick test relative to control; assay type: functional; conditions: 1 h
# Mus musculus [23] = assay: Antinociceptive activity in Kunming mouse model assessed as latency of tail withdrawal at 13882 nmol/kg, sc measured for 120 mins by tail-flick test relative to control; assay type: functional; conditions: 2 h
smiles,measurement,setting,value
NC(=O)[C@@H]1CCCN1C(=O)[C@H]1CC(=O)NCCCC[C@@H](NC(=O)[C@@H](N)Cc2ccc(O)cc2)C(=O)N2CCC[C@H]2C(=O)N[C@@H](Cc2ccccc2)C(=O)N1,MPE,Mus musculus [1],84.5%
same,Emax,Mu-type opioid receptor [2],83.6%
same,Activity,[3],inactive
same,EC50,Mu-type opioid receptor [4],2090 nM
same,MPE,Mus musculus [5],88%
same,MPE,Mus musculus [6],46.1%
same,MPE,Mus musculus [7],57.9%
CN1CC(=O)N[C@@H](Cc2ccccc2)C(=O)N[C@H](C(=O)N2CCC[C@@H]2C(N)=O)CC(=O)NCCCC[C@@H](NC(=O)[C@@H](N)Cc2ccc(O)cc2)C1=O,MPE,Mus musculus [8],58.7%
same,MPE,Mus musculus [9],75.7%
same,MPE,Mus musculus [10],53.2%
same,MPE,Mus musculus [11],92.7%
NC(=O)[C@@H]1CCCN1C(=O)[C@H]1CC(=O)NCCCC[C@@H](NC(=O)[C@@H](N)Cc2ccc(O)cc2)C(=O)NCC(=O)N[C@@H](c2ccccc2)C(=O)N1,MPE,Mus musculus [12],87.5%
same,MPE,Mus musculus [13],44.4%
same,MPE,Mus musculus [14],44.4%
same,MPE,Mus musculus [15],94.4%
same,Activity,[3],inactive
NC(=O)[C@@H]1CC(=O)NCCCC[C@@H](NC(=O)[C@@H](N)Cc2ccc(O)cc2)C(=O)NCC(=O)N[C@@H](Cc2ccccc2)C(=O)N1,MPE,Mus musculus [16],71.9%
same,MPE,Mus musculus [17],70.7%
same,MPE,Mus musculus [18],95.4%
same,MPE,Mus musculus [19],43.8%
NC(=O)[C@H]1CCCN1C(=O)[C@@H]1CC(=O)NCCCC[C@@H](NC(=O)[C@@H](N)Cc2ccc(O)cc2)C(=O)NCC(=O)N[C@@H](CCc2ccccc2)C(=O)N1,MPE,Mus musculus [20],55%
same,MPE,Mus musculus [21],96%
same,MPE,Mus musculus [22],73.7%
same,MPE,Mus musculus [23],25.6%
